Measurements from patent US8476198B2, “Fungicidal composition” (Valent BioSciences Corporation, priority 2009, dated 2013).
Structures can show the parent of a compound that is named as a salt.

Legend:
[1] = tested on: Fusarium solani f. sp. pisi; assay: Seed treatment effect against Fusarium solani f. sp. pisi (Fusarium root rot of pea); assay type: in vivo, Fusarium solani f. sp. pisi on pea; conditions: 16 days
Experimental: Seed treatment effect against Fusarium solani f. sp. pisi (Fusarium root rot of pea)
PESA and metconazole were diluted with DMSO respectively and mixed with each other to obtain the desired material mixture. Then, this suspension was applied to pea seeds. The PESA solution and the metconazole solution were applied to seeds respectively for control, and DMSO for untreated control. The seeds were dried and planted in soil that was inoculated with Fusarium solani f. sp. pisi. After growing at 20-24° C. in a greenhouse, for 16 days, symptoms were investigated and the frequency of disease and % control were calculated. The fungicide interactions in the combinations are calculated according to […] formula: E=X+Y−(X*Y)/100 • X=% action by active ingredient A using P ppm of active ingredient • Y=% action by active ingredient B using Q ppm of active ingredient • E=expected % action by active ingredients A and B using P and Q ppm of active ingredients If the action actually observed (O) is greater than the expected action (E), than the action of the combination is super-additive, i.e. there is a synergistic effect. In mathematical terms, synergism corresponds to a value of more than 100 for the ratio of O/E, said ratio O/E of less than 100 signals a loss of activity compared to the expected activity. Synergy Effect=(Observed/Expected)*100

cotton seedlings = assay: Pouch assay: main root length of cotton seedlings from treated seeds; assay type: in vivo; conditions: for Root Length (cm): 6 day-old cotton seedlings
Experimental: Seeds of cotton were treated with PESA salt and/or triadimenol (BAYTAN® 30 Flowable Fungicide, Bayer Crop Science, RTP, NC USA). These were assayed in the pouch assay as described above.

With `CC1(C)CCC(Cc2ccc(Cl)cc2)C1(O)Cn1cncn1` (stereo not drawn) [Metconazole, metconazole, reference compound] the “Observed action (% control)” value ([1]; metconazole 0.2 gai/100 kg seed) was 55 % control and the “Observed action (% control)” value ([1]; metconazole 1 gai/100 kg seed) was 73 % control.
With `O=C(O)CCC(=O)NCCc1ccccc1` [PESA, N-(2-phenylethyl)succinamic acid] the “Observed action (% control)” value ([1]; PESA 2 gai/100 kg seed, inoculated soil) was 0 % control and the “Observed action (% control)” value ([1]; PESA 10 gai/100 kg seed, inoculated soil) was 9 % control.
For `O=C(O)CCC(=O)NCCc1ccccc1` [PESA salt], the “Root Length (cm)” value (cotton seedlings; 25 g ai PESA salt/100 lbs. of seed, triadimenol 0) was 14.8 cm, the “Root Length (cm)” value (cotton seedlings; 50 g ai PESA salt/100 lbs. of seed, triadimenol 0) was 14.3 cm and the “Effect of adding PESA salt on the fungicide's negative effect on cotton root growth” value (cotton seedlings; cotton seed treatment, conclusion in words from Table 2) was “protects or safens cotton from the negative effects of the fungicide on root growth”.
For `CC(C)(C)C(O)C(Oc1ccc(Cl)cc1)n1cncn1` (stereo not drawn) [Triadimenol, triadimenol, reference compound], the “Root Length (cm)” value (cotton seedlings; triadimenol 28.2 g ai/100 lbs. of seed, 0 g ai PESA salt) was 12.8 cm and the “Root Length (cm)” value (cotton seedlings; triadimenol 56.4 g ai/100 lbs. of seed, 0 g ai PESA salt) was 12.3 cm.
